Assay results: US20120064121A1, “PYRIDINE COMPOUNDS FOR INFLAMMATION AND IMMUNE-RELATED USES” (SYNTA PHARMACEUTICALS CORP., priority 2008, published 2012)
Structures can show the parent of a compound that is named as a salt.

System: IL-2 production
Assay: Inhibition of IL-2 production in PHA-activated Jurkat cells (ELISA)
Type: cell-based
Conditions: PHA 2.5 μg/mL, IL-2 ELISA
Experimental: Jurkat cells were placed in a 96 well plate (0.5 million cells per well in 1% FBS medium) then a test compound of this invention was added at different concentrations. After 10 minutes, the cells were activated with PHA (final concentration 2.5 μg/mL) and incubated for 20 hours at 37° C. under CO2. The final volume was 200 μL. Following incubation, the cells were centrifuged and the supernatants collected and stored at −70° C. prior to assaying for IL-2 production. A commercial ELISA kit (IL-2 Eli-pair, Diaclone Research, Besancon, France) was used to detect production of IL-2, from which dose response curves were obtained. The IC50 value was calculated as the concentration at which 50% of maximum IL-2 production after stimulation was inhibited versus a non-stimulation control.

Compound	IC50 (Homo sapiens, Jurkat, 20 h)	further results
O=C(Nc1ccc(-c2cc(-c3nccs3)ccc2Cl)cn1)c1c(F)cccc1Cl [Compound 12, 2-chloro-N-(5-(2-chloro-5-(thiazol-2-yl)phenyl)pyridin-2-yl)-6-fluorobenzamide]	0.01 µM	–
Fc1cccc(F)c1CNc1ccc(-c2cc(-c3nccs3)ccc2Cl)cn1 [Compound 2, 5-(2-chloro-5-(thiazol-2-yl)phenyl)-N-(2,6-difluorobenzyl)pyridin-2-amine hydrochloride]	–	IC50 (20 hours, hydrochloride): 0.021 µM
O=C(Nc1ccc(-c2cc(-c3nccs3)ccc2Cl)cn1)c1ccncc1F [Compound 8, N-(5-(2-chloro-5-(thiazol-2-yl)phenyl)pyridin-2-yl)-3-fluoroisonicotinamide]	0.011 µM	–
Cn1cncc1C(=O)Nc1ccc(-c2cc(-c3nccs3)ccc2Cl)cn1 [Compound 16, N-(5-(2-chloro-5-(thiazol-2-yl)phenyl)pyridin-2-yl)-1-methyl-1H-imidazole-5-carboxamide]	0.091 µM	–
Cc1ccc(-c2ncccn2)cc1-c1ccc(NC(=O)c2c(F)cccc2F)nc1 [Compound 7, 2,6-difluoro-N-(5-(2-methyl-5-(pyrimidin-2-yl)phenyl)pyridin-2-yl)benzamide]	0.012 µM	–
Cc1cc[nH]c1C(=O)Nc1ccc(-c2cc(-c3nccs3)ccc2Cl)cn1 [Compound 15, N-(5-(2-chloro-5-(thiazol-2-yl)phenyl)pyridin-2-yl)-3-methyl-1H-pyrrole-2-carboxamide]	0.348 µM	–
O=C(Nc1ccc(-c2cc(-c3nccs3)ccc2Cl)nc1)c1ccccc1C(F)(F)F [Compound 14, N-(6-(2-chloro-5-(thiazol-2-yl)phenyl)pyridin-3-yl)-2-(trifluoromethyl)benzamide]	0.071 µM	–
Cc1ncsc1C(=O)Nc1ccc(-c2cc(-c3nccs3)ccc2Cl)cn1 [Compound 17, N-(5-(2-chloro-5-(thiazol-2-yl)phenyl)pyridin-2-yl)-4-methylthiazole-5-carboxamide]	0.081 µM	–
Cc1ccc(-c2cccnc2)cc1-c1ccc(NC(=O)c2c(F)cccc2F)nc1 [Compound 6, 2,6-difluoro-N-(5-(2-methyl-5-(pyridin-3-yl)phenyl)pyridin-2-yl)benzamide]	0.003 µM	–
Fc1cccc(F)c1CNc1ccc(-c2cc(-c3nccs3)ccc2Cl)cn1 [Compound 1, 5-(2-chloro-5-(thiazol-2-yl)phenyl)-N-(2,6-difluorobenzyl)pyridin-2-amine]	–	IC50 (20 hours): 0.056 µM
Cc1ccc(-c2cccnc2)cc1-c1ccc(NC(=O)c2c(F)cccc2Cl)nc1 [Compound 10, 2-chloro-6-fluoro-N-(5-(2-methyl-5-(pyridin-3-yl)phenyl)pyridin-2-yl)benzamide hydrochloride]	–	IC50 (20 hours, hydrochloride): 0.007 µM
Cc1ccc(-c2cccnc2)cc1-c1ccc(NC(=O)c2c(F)cccc2Cl)nc1 [Compound 9, 2-chloro-6-fluoro-N-(5-(2-methyl-5-(pyridin-3-yl)phenyl)pyridin-2-yl)benzamide]	–	IC50 (20 hours): > 1 µM
O=C(Nc1ccc(-c2cc(-c3cccnc3)ccc2Cl)cn1)c1c(F)cccc1F [Compound 18, N-(5-(2-chloro-5-(pyridin-3-yl)phenyl)pyridin-2-yl)-2,6-difluorobenzamide]	0.006 µM	–
Fc1cccc(F)c1CNc1ccc(-c2cc(-c3nccs3)ccc2Cl)nc1 [Compound 4, 6-(2-chloro-5-(thiazol-2-yl)phenyl)-N-(2,6-difluorobenzyl)pyridin-3-amine]	0.019 µM	–
Fc1cccc(F)c1CNc1ccc(-c2cc(-c3ncco3)ccc2Cl)cn1 [Compound 5, 5-(2-chloro-5-(oxazol-2-yl)phenyl)-N-(2,6-difluorobenzyl)pyridin-2-amine]	0.017 µM	–
O=C(Nc1ccc(-c2cc(-c3nccs3)ccc2Cl)cn1)c1c(F)cccc1C(F)(F)F [Compound 13, N-(5-(2-chloro-5-(thiazol-2-yl)phenyl)pyridin-2-yl)-2-fluoro-6-(trifluoromethyl)benzamide]	0.066 µM	–
O=C(Nc1ccc(-c2cc(-c3nccs3)ccc2Cl)cn1)c1ccccc1F [Compound 11, N-(5-(2-chloro-5-(thiazol-2-yl)phenyl)pyridin-2-yl)-2-fluorobenzamide]	0.013 µM	–
Cc1ccc(-c2ccno2)cc1-c1ccc(NCc2c(F)cccc2F)cn1 [Compound 3, N-(2,6-difluorobenzyl)-6-(5-(isoxazol-5-yl)-2-methylphenyl)pyridin-3-amine]	0.048 µM	–
